Consider four compounds from patent US12161738B2, “Deodorant compositions” (The Procter & Gamble Company, priority 2019, dated 2024).

The structures appear in SMILES notation.

The nature of series [1]: pH of various magnesium salts in a water solution. The class given is physicochemical. To be noted: 12% in water. How it is done: The pH of magnesium carbonate, partially carbonated magnesium hydroxide, magnesium hydroxide and magnesium oxide were taken in a water solution. The pH values were recorded as follows in Table 4.
Series [2] has as its system Corynebacterium mucofaciens (clinical isolate). In words: Tier 1 Anaerobic MIC Assay. It counts as cell-based. To be noted: raw material, BHI with 1% Tween 80, 37° C. overnight, O.D. 600. How it is done:
(§1) Tier 1 Anaerobic MIC Assay
(§2) The data in Table 1 above was generated with the following test method. The purpose of this assay is to determine if a compound or formulation has an antimicrobial effect in vitro.
(§3) Procedure: (All procedures performed in anaerobic chamber except where noted)
(§4) Incubator at 37° C.; 20-200 ul 12 channel pipette; 5-50 ul 12 channel pipette; 1250 ul 8 channel Thermo Scientific Matrix pipette; 96 well plate shaker (located in incubator); Beckman Coulter deep well cap mat #267005; Beckman Coulter deep 96 well plates #267007; Falcon 96 well tissue culture plates #353072; Vortexer; Culture tubes/caps Disposable sterile gloves; Sterile petri dishes; Standard microbiological lab equipment (sterile pipettes, syringes, tips, loops, etc.); Glass bottles/flasks for media; Autoclave; Parafilm; Spectrophotometer.
(§5) BHI agar supplemented with 1% Tween 80
(§6) BHI media supplemented with 1% Tween 80
Corynebacterium mucofaciens (clinical isolate)
(§7) Prior to testing streak organisms for isolation on BHI with 1% Tween 80 plates, wrap with parafilm and place in 37° C. incubator. When isolated colonies appear remove one representative colony from each plate and place each in 5 ml of BHI with 1% Tween 80 media. […]
(§8) In row A of a 96 deep well plate pipette 180 ul of sterile BHI with 1% Tween 80 as a negative growth control. […] The next day read the O.D. 600 on a plate reader. […]

Series [3] relates to Staphylococcus epidermidis (clinical isolate). The experiment in a line: Tier 1 Anaerobic MIC Assay. It counts as cell-based. To be noted: raw material, BHI with 1% Tween 80, 37° C. overnight, O.D. 600. How it is done: as §1, §2, §3, §4, §5, §6
Staphylococcus epidermidis (clinical isolate)
as §7, §8

With `[O]=[Mg]` [Magnesium Oxide], the “pH in water 12% Solution” value was 10.8 in series [1] and “highest pH observed” in series [1] (listed as Magnesium oxide).

In the case of `Cc1cc(CC(C)CC(C)(C)C)n(O)c(=O)c1.NCCO` (stereo not drawn) [piroctone olamine], in series [2], the “microbial inhibition concentration (MIC), C. mucofaciens” value is listed as less than 5 ppm. In addition, the “microbial inhibition concentration (MIC), S. epidermidis” value in series [3] was determined as 10 ppm. As for `[Mg+2].[OH-].[OH-]` [Magnesium Hydroxide], the “pH in water 12% Solution” value in series [1] is reported as 10. On the same count and under the same terms, the same measure for `O=C([O-])[O-].[Mg+2]` [Magnesium Carbonate]: 9.6.
